Source: patent publication US20260000676A1, “CHROMAN DERIVATIVES AS ESTROGEN RECEPTOR DEGRADERS” (THE REGENTS OF THE UNIVERSITY OF MICHIGAN, priority 2022, published 2026)
Structures can show the parent of a compound that is named as a salt.

Experiments:
CRBN/DDB1 = CRBN/DDB1 (Homo sapiens (Human), UniProt Q96SW2); test: HTRF binding assay to CRBN/DDB1; conditions: read-out: CRBN HTRF IC50
Experimental: The binding potency was determined using HTRF assay technology (Perkin Elmer). Compounds were serially diluted in DMSO and 0.2 μL volume was transferred to white 384-well plate.

ER [1] = target: T1, ER (Homo sapiens (Human), UniProt P03372); test: In-cell western (ICW) ER degradation assay in MCF-7 cells; format: cell-based; conditions: MCF7, 16 hrs; for DC50: ER degradation; for Dmax: MCF7, maximal ER degradation
ER [2] = target: T1, ER; test: In-cell western (ICW) ER degradation assay in T47D cells; format: cell-based; conditions: 16 hrs; for DC50: ER degradation; for Dmax: maximal ER degradation
ERα_LBD(GST) = ERα_LBD(GST) (Homo sapiens (Human), UniProt P03372); test: LanthaScreen TR-FRET ERα competitive binding assay; conditions: read-out: ERα HTRF IC50
Experimental: • 1. ERα_LBD(GST) protein: 4 nM • 2. Tb Anti-GST: 2 nM • 3. Fluormone ES2 Green tracer: 3 nM • 4. Incubation time: 60 min • 5. DMSO: 1% • 6. Assay buffer: Adding 1M DTT to Nuclear receptor Buffer K for final 5 mM DTT. • 7. ZPE: 1% DMSO • 8. HPE: 1 μM ARV_471 • 9. LanthaScreen® TR-FRET ERα Competitive Binding Assay (ThermoFisher, #A15887)
• 1) Cherry pick 2 μL 10 mM compound stock to column 1 of a 384 intermediate plate • 2) Add 18 μL DMSO to column 1 to dilute compound to 1 mM. • 3) Transfer 10 μL 1 mM compound to column 1 of a LDV plate. • 2) Add 6 μl DMSO to column 2-10 of the LDV plate. • 3) Compounds undergo 3-fold serial dilution (3 μL+6 μL) in DMSO. • 4) Transfer 120 nL compound solution to assay plate. • ZPE: 120 nL 100% DMSO
Prepare complete nuclear receptor buffer K by adding 1 M DTT to nuclear receptor buffer K for a final concentration of 5 mM DTT. Complete nuclear receptor buffer K must be prepared fresh daily. Prepare 2× protein solution using complete nuclear receptor buffer K containing 8 nM ERα_LBD(GST) and 4 nM Tb Anti-GST. Then, prepare 2× Fluormone ES2 Green tracer (6 nM) using complete nuclear receptor buffer K. Add 6 μL 2× Fluormone ES2 green tracer into a compound plate (PerkinElmer 6008289) by dragonfly with one-tips-addition. Subsequently, add 6 μL 2× protein solution into the plate. Briefly and gently mix the 384-well plate on a plate shaker and incubate at room temperature protected from light for 60 min. The plate is sealed with a cover to minimize evaporation. Read the plate at wavelengths of 520 nm and 495 nm. Calculate the TR-FRET ratio by dividing the emission signal at 520 nm by the emission signal at 495 nm. Generate a binding curve by plotting the emission ratio vs. the log [ligand]. To determine the IC50 value, fit the data using XL-fit for a sigmoidal dose-response.

T47D cells = test: cells; conditions: Homo sapiens, 144 h, read-out: T47D Proliferation IC50 (nM)
Experimental: (§1) In vitro assay can be accomplished by MCF-7 and T47D Cell Titer Glo (CTG) assay. MCF-7 and T47D cell (From HDB) are cultured in multi-well white plate with phenol red-free RPMI1640+10% CS-FBS+1% P/S medium (e.g., at 1,000 cells/well). On day 0: Cells are treated with compound at certain concentrations (e.g., 0.5 to 10000 nM) (DMSO and Staurosporine as control). On day 0 and day 6: add Cell Titer Glo reagent and read on EnVision after 30 min incubation for data generation.
(§2) • 1) Cell culture medium: phenol red-free RPMI1640+10% CS-FBS, 1% P/S
(§3) Day-1: MCF-7 and T47D cell (From HDB) were cultured in 384-well white plate with phenol red-free RPMI1640+10% CS-FBS+1% P/S medium (1,000 cells/well) for overnight at 37° C., 5% CO2 incubator.
(§4) Day 0: Cells were treated at desired compound concentrations (0.5 to 10000 nM) (DMSO and Staurosporine as control) for Day 6 at 37° C., 5% CO2 incubator.
(§5) Day 0 and Day 6: add Cell TiterGlo reagent and read on EnVision after 30 min incubation for data generation.

MCF-7 cells = test: cells; conditions: Homo sapiens, MCF7, 144 h, read-out: MCF7 Proliferation IC50 (nM)
Experimental: as §1, §2, §3, §4, §5

T1 sequence (P03372 whole entry): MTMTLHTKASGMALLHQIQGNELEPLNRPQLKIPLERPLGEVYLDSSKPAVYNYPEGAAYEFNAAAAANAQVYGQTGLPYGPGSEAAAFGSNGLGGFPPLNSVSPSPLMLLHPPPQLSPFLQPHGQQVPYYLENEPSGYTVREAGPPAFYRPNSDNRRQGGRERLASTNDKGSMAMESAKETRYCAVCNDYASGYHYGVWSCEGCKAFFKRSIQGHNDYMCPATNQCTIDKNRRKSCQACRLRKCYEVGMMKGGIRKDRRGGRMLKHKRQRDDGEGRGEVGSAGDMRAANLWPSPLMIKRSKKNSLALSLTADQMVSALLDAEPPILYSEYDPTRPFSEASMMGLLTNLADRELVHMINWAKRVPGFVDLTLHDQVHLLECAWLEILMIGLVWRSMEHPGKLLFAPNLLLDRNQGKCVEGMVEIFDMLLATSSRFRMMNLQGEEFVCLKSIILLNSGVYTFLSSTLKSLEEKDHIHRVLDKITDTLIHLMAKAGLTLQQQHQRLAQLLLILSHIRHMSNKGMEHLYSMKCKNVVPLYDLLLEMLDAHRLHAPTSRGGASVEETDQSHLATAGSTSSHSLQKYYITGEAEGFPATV
Sequence of ERα_LBD(GST) (P03372 311-547): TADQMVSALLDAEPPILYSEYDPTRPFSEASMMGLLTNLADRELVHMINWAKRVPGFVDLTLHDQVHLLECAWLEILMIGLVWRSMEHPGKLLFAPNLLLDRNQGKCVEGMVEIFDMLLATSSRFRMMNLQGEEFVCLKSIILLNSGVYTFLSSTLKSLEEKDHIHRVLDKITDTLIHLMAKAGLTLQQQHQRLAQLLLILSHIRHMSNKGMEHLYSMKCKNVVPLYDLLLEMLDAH
Sequence of CRBN/DDB1 (Q96SW2 whole entry): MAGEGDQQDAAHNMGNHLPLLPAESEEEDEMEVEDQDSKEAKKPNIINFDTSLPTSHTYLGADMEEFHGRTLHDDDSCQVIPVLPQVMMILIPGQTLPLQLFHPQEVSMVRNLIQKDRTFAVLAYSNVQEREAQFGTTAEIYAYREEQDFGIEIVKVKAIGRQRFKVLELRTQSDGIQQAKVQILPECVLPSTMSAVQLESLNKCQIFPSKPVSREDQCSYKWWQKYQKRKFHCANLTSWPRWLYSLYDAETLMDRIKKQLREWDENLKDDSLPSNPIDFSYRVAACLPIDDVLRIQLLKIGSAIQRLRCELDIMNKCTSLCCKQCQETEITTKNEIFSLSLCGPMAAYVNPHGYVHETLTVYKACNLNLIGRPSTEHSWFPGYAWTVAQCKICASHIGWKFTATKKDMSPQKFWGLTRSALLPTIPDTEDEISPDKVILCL
Sequence of CRBN/DDB1 (Q16531 whole entry partner): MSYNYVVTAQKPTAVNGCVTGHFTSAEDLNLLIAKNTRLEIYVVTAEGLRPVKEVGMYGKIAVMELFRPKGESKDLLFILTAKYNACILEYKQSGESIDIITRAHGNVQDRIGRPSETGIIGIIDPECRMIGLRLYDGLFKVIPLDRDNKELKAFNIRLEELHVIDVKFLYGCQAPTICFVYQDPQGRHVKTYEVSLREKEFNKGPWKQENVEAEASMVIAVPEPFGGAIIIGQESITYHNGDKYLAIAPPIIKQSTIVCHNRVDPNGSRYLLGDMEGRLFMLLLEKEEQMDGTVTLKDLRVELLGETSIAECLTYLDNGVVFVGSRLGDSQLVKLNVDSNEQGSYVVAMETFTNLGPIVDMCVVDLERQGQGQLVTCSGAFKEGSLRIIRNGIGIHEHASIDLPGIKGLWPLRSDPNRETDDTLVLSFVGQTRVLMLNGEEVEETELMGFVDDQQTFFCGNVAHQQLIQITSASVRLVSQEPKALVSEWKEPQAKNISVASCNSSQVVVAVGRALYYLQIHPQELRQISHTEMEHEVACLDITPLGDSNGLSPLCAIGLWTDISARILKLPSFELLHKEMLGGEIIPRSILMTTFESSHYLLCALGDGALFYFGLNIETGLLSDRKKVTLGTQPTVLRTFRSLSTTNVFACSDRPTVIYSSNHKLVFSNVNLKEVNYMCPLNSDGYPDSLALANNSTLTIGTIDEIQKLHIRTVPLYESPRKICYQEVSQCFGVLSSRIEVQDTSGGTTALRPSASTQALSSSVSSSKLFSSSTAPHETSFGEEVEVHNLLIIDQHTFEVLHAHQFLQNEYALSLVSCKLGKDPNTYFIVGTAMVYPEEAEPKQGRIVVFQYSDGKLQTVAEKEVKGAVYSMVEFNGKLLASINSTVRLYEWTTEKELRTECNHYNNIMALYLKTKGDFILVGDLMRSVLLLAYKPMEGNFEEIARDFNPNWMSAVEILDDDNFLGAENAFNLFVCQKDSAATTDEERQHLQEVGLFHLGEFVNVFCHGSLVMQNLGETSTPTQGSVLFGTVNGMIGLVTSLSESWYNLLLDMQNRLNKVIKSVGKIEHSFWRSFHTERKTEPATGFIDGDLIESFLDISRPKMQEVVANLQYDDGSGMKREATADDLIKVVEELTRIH

Compound: COc1cc(C(=O)NC2CCC(=O)NC2=O)ncc1N1CCN(CC2CCC3(CC2)CN(c2ccc([C@H]4c5ccc(O)cc5OC[C@H]4c4ccccc4)cc2)C3)CC1 (mixture of isomers) [Compound A117, N-(2,6-dioxopiperidin-3-yl)-5-(4-((2-(4-((3R,4S)-7-hydroxy-3-phenylchroman-4-yl)phenyl)-2-azaspiro[3.5]nonan-7-yl)methyl)piperazin-1-yl)-4-methoxypicolinamide]
- IC50 (CRBN/DDB1): 500 to 5000 nM
- DC50 (ER [1]): < 1 nM
- Dmax (ER [1]): ≥ 75%
- DC50 (ER [2]): < 1 nM
- Dmax (ER [2]): ≥ 75%
- IC50 (ERα_LBD(GST)): < 5 nM
- IC50 (T47D cells): < 50 nM
- IC50 (MCF-7 cells): < 50 nM

Compound: O=C1CCC(Nc2ccc(N3CCN(CC4CC5(CCN(c6ccc([C@H]7c8ccc(O)cc8OC[C@H]7c7ccccc7)cc6)CC5)C4)CC3)c(F)c2)C(=O)N1 (single isomer, unassigned) [Compound A51]
- IC50 (CRBN/DDB1): 500 to 5000 nM
- DC50 (ER [1]): < 1 nM
- Dmax (ER [1]): 25 to 50%
- DC50 (ER [2]): < 1 nM
- Dmax (ER [2]): 25 to 50%
- IC50 (T47D cells): 50 to 500 nM
- IC50 (MCF-7 cells): 50 to 500 nM

Compound: COc1cc(C(=O)NC2CCC(=O)NC2=O)ncc1N1CCN(CC2CC3(CCN(c4ccc([C@H]5c6ccc(O)cc6OC[C@H]5c5ccccc5)cc4)CC3)C2)CC1 (single isomer, unassigned) [Compound A116]
- IC50 (CRBN/DDB1): 500 to 5000 nM
- DC50 (ER [1]): < 1 nM
- Dmax (ER [1]): 50 to 75%
- DC50 (ER [2]): < 1 nM
- Dmax (ER [2]): 50 to 75%
- IC50 (T47D cells): 50 to 500 nM
- IC50 (MCF-7 cells): < 50 nM

Compound: O=C1CC[C@@H](N2Cc3cc4c(cc3C2=O)OC[C@H]2CN(CC3CCC5(CC3)CN(c3ccc([C@H]6c7ccc(O)cc7OC[C@H]6c6ccccc6)cc3)C5)CCN42)C(=O)N1 (single isomer, unassigned) [Compound A118]
- DC50 (ER [1]): 1 to 10 nM
- Dmax (ER [1]): ≥ 75%
- DC50 (ER [2]): 1 to 10 nM
- Dmax (ER [2]): ≥ 75%
- IC50 (ERα_LBD(GST)): < 5 nM
- IC50 (T47D cells): 50 to 500 nM
- IC50 (MCF-7 cells): 50 to 500 nM

Compound: O=C1CC[C@@H](N2Cc3cc4c(cc3C2=O)OCC2CN(CC3CCC5(CC3)CN(c3ccc([C@H]6c7ccc(O)cc7OC[C@H]6c6ccccc6)cc3)C5)CCN42)C(=O)N1 (stereo in doubt) [Compound A120, (R)-3-((R)-3-((2-(4-((3R,4S)-7-hydroxy-3-phenylchroman-4-yl)phenyl)-2-azaspiro[3.5]nonan-7-yl)methyl)-8-oxo-1,2,3,4,4a, 5,8,10-octahydro-9H-pyrazino[1′,2′:4,5][1,4]oxazino[2,3-f]isoindol-9-yl)piperidine-2,6-dione]
- DC50 (ER [1]): 1 to 10 nM
- Dmax (ER [1]): ≥ 75%
- DC50 (ER [2]): < 1 nM
- Dmax (ER [2]): ≥ 75%
- IC50 (ERα_LBD(GST)): < 5 nM
- IC50 (T47D cells): 50 to 500 nM
- IC50 (MCF-7 cells): 50 to 500 nM

Compound: O=C1CCC(N2Cc3cc4c(cc3C2=O)CN(C(=O)CN2CC3(CCN(c5ccc([C@H]6c7ccc(O)cc7OC[C@H]6c6ccccc6)cc5)CC3)C2)C4)C(=O)N1 (stereo partly drawn) [Compound A56, 3-(6-(2-(7-(4-((3R,4S)-7-hydroxy-3-phenylchroman-4-yl)phenyl)-2,7-diazaspiro[3.5]nonan-2-yl)acetyl)-1-oxo-3,5,6,7-tetrahydropyrrolo[3,4-f]isoindol-2(1H)-yl)piperidine-2,6-dione formate]
- IC50 (CRBN/DDB1): 50 to 500 nM
- DC50 (ER [1]; formate): 1 to 10 nM
- MCF7 Dmax % (ER [1]; maximal ER degradation, formate): B (“B”: >50% and <75%)
- DC50 (ER [2]): < 1 nM
- Dmax (ER [2]): ≥ 75%
- IC50 (T47D cells): < 50 nM
- IC50 (MCF-7 cells): < 50 nM

Compound: O=C1CC[C@@H](N2Cc3cc4c(cc3C2=O)OC[C@H]2CN(CC3CC5(CCN(c6ccc([C@@H]7c8ccc(O)cc8OC[C@@H]7c7ccccc7)cc6)CC5)C3)CCN42)C(=O)N1 [Compound A95, (R)-3-((R)-3-((7-(4-((3S,4R)-7-hydroxy-3-phenylchroman-4-yl)phenyl)-7-azaspiro[3.5]nonan-2-yl)methyl)-8-oxo-1,2,3,4,4a,5,8,10-octahydro-9H-pyrazino[1′,2′:4,5][1,4]oxazino[2,3-f]isoindol-9-yl)piperidine-2,6-dione]
- IC50 (CRBN/DDB1): 500 to 5000 nM
- DC50 (ER [1]): 1 to 10 nM
- Dmax (ER [1]): 50 to 75%
- DC50 (ER [2]): 1 to 10 nM
- Dmax (ER [2]): 50 to 75%
- IC50 (T47D cells): < 50 nM
- IC50 (MCF-7 cells): 50 to 500 nM

Compound: O=C1CC[C@@H](N2Cc3cc4c(cc3C2=O)OC[C@@H]2CN(CC3CC5(CCN(c6ccc([C@H]7c8ccc(O)cc8OC[C@H]7c7ccccc7)cc6)CC5)C3)CCN42)C(=O)N1 [Compound A96, (R)-3-((S)-3-((7-(4-((3R,4S)-7-hydroxy-3-phenylchroman-4-yl)phenyl)-7-azaspiro[3.5]nonan-2-yl)methyl)-8-oxo-1,2,3,4,4a,5,8,10-octahydro-9H-pyrazino[1′,2′:4,5][1,4]oxazino[2,3-f]isoindol-9-yl)piperidine-2,6-dione]
- IC50 (CRBN/DDB1): 50 to 500 nM
- DC50 (ER [1]): < 1 nM
- Dmax (ER [1]): 50 to 75%
- DC50 (ER [2]): < 1 nM
- Dmax (ER [2]): 50 to 75%
- IC50 (T47D cells): < 50 nM
- IC50 (MCF-7 cells): < 50 nM

Compound: O=C1CCC(N2Cc3c(ccc4c3OCC43CCN(CC4CC5(CCN(c6ccc([C@@H]7c8ccc(O)cc8OC[C@@H]7c7ccccc7)cc6)CC5)C4)CC3)C2=O)C(=O)N1 (stereo partly drawn) [Compound A113, 3-(1′-((7-(4-((3S,4R)-7-hydroxy-3-phenylchroman-4-yl)phenyl)-7-azaspiro[3.5]nonan-2-yl)methyl)-6-oxo-6,8-dihydro-2H,7H-spiro[furo[2,3-e]isoindole-3,4′-piperidin]-7-yl)piperidine-2,6-dione]
- IC50 (CRBN/DDB1): < 50 nM
- DC50 (ER [1]): < 1 nM
- Dmax (ER [1]): 50 to 75%
- DC50 (ER [2]): < 1 nM
- Dmax (ER [2]): 50 to 75%
- IC50 (T47D cells): > 5000 nM
- IC50 (MCF-7 cells): < 50 nM

Compound: O=C1CCC(N2Cc3c(ccc4c3OCC43CCN(CC4CCC5(CC4)CN(c4ccc([C@@H]6c7ccc(O)cc7OC[C@@H]6c6ccccc6)cc4)C5)CC3)C2=O)C(=O)N1 (stereo partly drawn) [Compound A114, 3-(1′-((2-(4-((3S,4R)-7-hydroxy-3-phenylchroman-4-yl)phenyl)-2-azaspiro[3.5]nonan-7-yl)methyl)-6-oxo-6,8-dihydro-2H,7H-spiro[furo[2,3-e]isoindole-3,4′-piperidin]-7-yl)piperidine-2,6-dione]
- IC50 (CRBN/DDB1): < 50 nM
- DC50 (ER [1]): < 1 nM
- Dmax (ER [1]): ≥ 75%
- DC50 (ER [2]): < 1 nM
- Dmax (ER [2]): ≥ 75%
- IC50 (T47D cells): < 50 nM
- IC50 (MCF-7 cells): < 50 nM

Compound: O=C1CC[C@@H](N2Cc3cc4c(cc3C2=O)OC[C@H]2CN(CC3CCC5(CC3)CN(c3ccc([C@@H]6c7ccc(O)cc7OC[C@@H]6c6ccccc6)cc3)C5)CCN42)C(=O)N1 [Compound A119, (R)-3-((R)-3-((2-(4-((3S,4R)-7-hydroxy-3-phenylchroman-4-yl)phenyl)-2-azaspiro[3.5]nonan-7-yl)methyl)-8-oxo-1,2,3,4,4a,5,8,10-octahydro-9H-pyrazino[1′,2′:4,5][1,4]oxazino[2,3-f]isoindol-9-yl)piperidine-2,6-dione]
- IC50 (CRBN/DDB1): 500 to 5000 nM
- DC50 (ER [1]): 1 to 10 nM
- Dmax (ER [1]): 50 to 75%
- DC50 (ER [2]): 1 to 10 nM
- Dmax (ER [2]): 50 to 75%
- IC50 (T47D cells): 500 to 5000 nM
- IC50 (MCF-7 cells): 50 to 500 nM

Compound: COc1cc(N2CCC(CN3CCC(c4ccc(N[C@@H]5CCC(=O)NC5=O)cc4)CC3)CC2)ccc1[C@@H]1c2ccc(O)cc2OC[C@@H]1c1ccccc1 [Compound A150, (R)-3-((4-(1-((1-(4-((3S,4R)-7-hydroxy-3-phenylchroman-4-yl)-3-methoxyphenyl)piperidin-4-yl)methyl)piperidin-4-yl)phenyl)amino)piperidine-2,6-dione]
- DC50 (ER [1]): < 1 nM
- Dmax (ER [1]): 25 to 50%
- DC50 (ER [2]): < 1 nM
- Dmax (ER [2]): 25 to 50%
- IC50 (ERα_LBD(GST)): < 5 nM
- IC50 (T47D cells): 50 to 500 nM
- IC50 (MCF-7 cells): 50 to 500 nM

Compound: O=C1CC[C@H](N2Cc3cc4c(cc3C2)N2CCN(C[C@@H]3COC5(CCN(c6ccc([C@H]7c8ccc(O)cc8OC[C@H]7c7ccccc7)cc6F)CC5)C3)C[C@H]2CO4)C(=O)N1 [Compound A161, (S)-3-((S)-3-(((R)-8-(2-fluoro-4-((3R,4S)-7-hydroxy-3-phenylchroman-4-yl)phenyl)-1-oxa-8-azaspiro[4.5]decan-3-yl)methyl)-1,2,3,4,4a, 5,8,10-octahydro-9H-pyrazino[1′,2′:4,5][1,4]oxazino[2,3-f]isoindol-9-yl)piperidine-2,6-dione]
- IC50 (CRBN/DDB1): 50 to 500 nM
- DC50 (ER [1]): < 1 nM
- Dmax (ER [1]): 50 to 75%
- DC50 (ER [2]): < 1 nM
- Dmax (ER [2]): ≥ 75%
- IC50 (MCF-7 cells): < 50 nM
